Experimental data: patent US10457677B2 (priority 2015, dated 2019)
Where a name gives a salt, the structure may show the parent alone. Read-outs that look alike come from different tables or passages of the source.

Key:
[1] = molecular target: purified human recombinant ATM (ataxia telangiectasia mutated), full length (Homo sapiens (Human), UniProt Q13315); test: ATM kinase assay - determination of ATM inhibition (IC50 ATM), TR-FRET; format: biochemical
How it was run: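 Full-length enzyme, expressed in a mammalian cell line, pre-incubated 15 min with inhibitor in 25 mM HEPES pH 8.0, 10 mM Mg(CH3COO)2, 1 mM MnCl2, 0,1% BSA, 0,01% Brij 35, 5 mM DTT. Full-length cmyc-p53 (Sf21-expressed) and ATP then added, 30-35 min at 22° C. EDTA stop; p53 S15 phosphorylation read by TR-FRET antibodies.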

[2] = system: phosphorylation of CHK2 (phospho-Thr68) in HCT116 cells; test: Cellular pCHK2 assay: bleomycin-induced phosphorylation of CHK2 (phospho-Thr68), immunofluorescence high-content analysis; format: cell-based, human; settings: Homo sapiens, HCT-116, 4 h, read-out: IC50 (pCHK2)
How it was run: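 HCT116 cells in DMEM with 10% FCS, incubated overnight at 37° C, then given compounds (1 nM to 30 μM, 0.5% DMSO) together with 10 μM bleomycin. Phospho-Thr68 CHK2 immunostained and imaged by high-content imager; nuclei with pCHK2 above background counted, cell count from propidium iodide DNA stain.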

[3] = molecular target: mTOR (human) (Homo sapiens (Human), UniProt P42345); test: mTOR (human) kinase assay, [γ-33P-ATP] filter assay; format: biochemical
Experimental: Furthermore, the effect, in particular inhibition, of other kinases and thus the selectivity of the compounds according to the invention can be determined with the aid of the following assay:
mTOR (human) was incubated with 50 mM HEPES pH 7.5, 1 mM EGTA, 0.01% Tween 20, 2 mg/ml of the substrate, 3 mM MnCl2 and [γ-^33P-ATP] (specific activity approximately 500 cpm/pmol, concentration as necessary). The reaction was initiated by addition of MgATP solution. After incubation at room temperature for 40 minutes, the reaction was stopped by addition of 3% phosphoric acid. 10 μl of the reaction solution were then transferred dropwise onto a P30 filtermat and washed three times for 5 min in 75 mM phosphoric acid and once in methanol, dried and evaluated by means of liquid scintillation counting.

[4] = molecular target: PI3K p110α/p85α (human) (Homo sapiens (Human), UniProt P42336); test: PI3K p110α/p85α (human), non-radioactive assay (HTRF); format: biochemical; settings: read-out: IC50 (PI3Kalpha)
[5] = molecular target: PI3K p110β/p85α (human) (Homo sapiens (Human), UniProt P42338); test: PI3K p110β/p85α (human), non-radioactive assay (HTRF); format: biochemical
Experimental: PI3K p110β/p85α (Human), Non-radioactive Assay
PI3K p110β/p85α (human) was incubated in an assay buffer comprising 10 μM phosphati-dylinositol 4,5-bisphosphate and MgATP (concentration as necessary). The reaction was initiated by addition of MgATP solution. After an incubation time of 30 min at room temperature, the reaction was stopped by addition of a solution consisting of EDTA and biotinylated phosphatidylinositol 3,4,5-trisphosphate. Finally, the detection buffer, consisting of a europium-labelled anti-GST monoclonal antibody, a GST-labelled GRP1 PH domain and streptavidin allophycocyanin, was added. The plate was read out via homogeneous time-resolved fluorescence (HTRF) and the corresponding signals were evaluated via the formula HTRF=10000×(Em665nm/Em620nm).

[6] = molecular target: PI3K p110δ/p85α (human) (Homo sapiens (Human), UniProt O00329); test: PI3K p110δ/p85α (human), non-radioactive assay (HTRF); format: biochemical; settings: read-out: IC50 (PI3Kdelta)
[7] = molecular target: PI3K (p120γ) (human) (Homo sapiens (Human), UniProt P48736); test: PI3K (p120γ) (human), non-radioactive assay (HTRF); format: biochemical; settings: read-out: IC50 (PI3Kgamma)
How it was run: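 Enzyme was run with 10 μM phosphatidylinositol 4,5-bisphosphate, starting the reaction with MgATP at an unspecified level, for 30 min at room temperature. The stop used EDTA plus biotinylated PIP3, and detection used Eu-anti-GST, GST-GRP1 PH domain and streptavidin-APC. Signal was taken as HTRF = 10000×(Em665nm/Em620nm).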

Chain of purified human recombinant ATM (ataxia telangiectasia mutated), full length (Q13315 whole entry, change not shown): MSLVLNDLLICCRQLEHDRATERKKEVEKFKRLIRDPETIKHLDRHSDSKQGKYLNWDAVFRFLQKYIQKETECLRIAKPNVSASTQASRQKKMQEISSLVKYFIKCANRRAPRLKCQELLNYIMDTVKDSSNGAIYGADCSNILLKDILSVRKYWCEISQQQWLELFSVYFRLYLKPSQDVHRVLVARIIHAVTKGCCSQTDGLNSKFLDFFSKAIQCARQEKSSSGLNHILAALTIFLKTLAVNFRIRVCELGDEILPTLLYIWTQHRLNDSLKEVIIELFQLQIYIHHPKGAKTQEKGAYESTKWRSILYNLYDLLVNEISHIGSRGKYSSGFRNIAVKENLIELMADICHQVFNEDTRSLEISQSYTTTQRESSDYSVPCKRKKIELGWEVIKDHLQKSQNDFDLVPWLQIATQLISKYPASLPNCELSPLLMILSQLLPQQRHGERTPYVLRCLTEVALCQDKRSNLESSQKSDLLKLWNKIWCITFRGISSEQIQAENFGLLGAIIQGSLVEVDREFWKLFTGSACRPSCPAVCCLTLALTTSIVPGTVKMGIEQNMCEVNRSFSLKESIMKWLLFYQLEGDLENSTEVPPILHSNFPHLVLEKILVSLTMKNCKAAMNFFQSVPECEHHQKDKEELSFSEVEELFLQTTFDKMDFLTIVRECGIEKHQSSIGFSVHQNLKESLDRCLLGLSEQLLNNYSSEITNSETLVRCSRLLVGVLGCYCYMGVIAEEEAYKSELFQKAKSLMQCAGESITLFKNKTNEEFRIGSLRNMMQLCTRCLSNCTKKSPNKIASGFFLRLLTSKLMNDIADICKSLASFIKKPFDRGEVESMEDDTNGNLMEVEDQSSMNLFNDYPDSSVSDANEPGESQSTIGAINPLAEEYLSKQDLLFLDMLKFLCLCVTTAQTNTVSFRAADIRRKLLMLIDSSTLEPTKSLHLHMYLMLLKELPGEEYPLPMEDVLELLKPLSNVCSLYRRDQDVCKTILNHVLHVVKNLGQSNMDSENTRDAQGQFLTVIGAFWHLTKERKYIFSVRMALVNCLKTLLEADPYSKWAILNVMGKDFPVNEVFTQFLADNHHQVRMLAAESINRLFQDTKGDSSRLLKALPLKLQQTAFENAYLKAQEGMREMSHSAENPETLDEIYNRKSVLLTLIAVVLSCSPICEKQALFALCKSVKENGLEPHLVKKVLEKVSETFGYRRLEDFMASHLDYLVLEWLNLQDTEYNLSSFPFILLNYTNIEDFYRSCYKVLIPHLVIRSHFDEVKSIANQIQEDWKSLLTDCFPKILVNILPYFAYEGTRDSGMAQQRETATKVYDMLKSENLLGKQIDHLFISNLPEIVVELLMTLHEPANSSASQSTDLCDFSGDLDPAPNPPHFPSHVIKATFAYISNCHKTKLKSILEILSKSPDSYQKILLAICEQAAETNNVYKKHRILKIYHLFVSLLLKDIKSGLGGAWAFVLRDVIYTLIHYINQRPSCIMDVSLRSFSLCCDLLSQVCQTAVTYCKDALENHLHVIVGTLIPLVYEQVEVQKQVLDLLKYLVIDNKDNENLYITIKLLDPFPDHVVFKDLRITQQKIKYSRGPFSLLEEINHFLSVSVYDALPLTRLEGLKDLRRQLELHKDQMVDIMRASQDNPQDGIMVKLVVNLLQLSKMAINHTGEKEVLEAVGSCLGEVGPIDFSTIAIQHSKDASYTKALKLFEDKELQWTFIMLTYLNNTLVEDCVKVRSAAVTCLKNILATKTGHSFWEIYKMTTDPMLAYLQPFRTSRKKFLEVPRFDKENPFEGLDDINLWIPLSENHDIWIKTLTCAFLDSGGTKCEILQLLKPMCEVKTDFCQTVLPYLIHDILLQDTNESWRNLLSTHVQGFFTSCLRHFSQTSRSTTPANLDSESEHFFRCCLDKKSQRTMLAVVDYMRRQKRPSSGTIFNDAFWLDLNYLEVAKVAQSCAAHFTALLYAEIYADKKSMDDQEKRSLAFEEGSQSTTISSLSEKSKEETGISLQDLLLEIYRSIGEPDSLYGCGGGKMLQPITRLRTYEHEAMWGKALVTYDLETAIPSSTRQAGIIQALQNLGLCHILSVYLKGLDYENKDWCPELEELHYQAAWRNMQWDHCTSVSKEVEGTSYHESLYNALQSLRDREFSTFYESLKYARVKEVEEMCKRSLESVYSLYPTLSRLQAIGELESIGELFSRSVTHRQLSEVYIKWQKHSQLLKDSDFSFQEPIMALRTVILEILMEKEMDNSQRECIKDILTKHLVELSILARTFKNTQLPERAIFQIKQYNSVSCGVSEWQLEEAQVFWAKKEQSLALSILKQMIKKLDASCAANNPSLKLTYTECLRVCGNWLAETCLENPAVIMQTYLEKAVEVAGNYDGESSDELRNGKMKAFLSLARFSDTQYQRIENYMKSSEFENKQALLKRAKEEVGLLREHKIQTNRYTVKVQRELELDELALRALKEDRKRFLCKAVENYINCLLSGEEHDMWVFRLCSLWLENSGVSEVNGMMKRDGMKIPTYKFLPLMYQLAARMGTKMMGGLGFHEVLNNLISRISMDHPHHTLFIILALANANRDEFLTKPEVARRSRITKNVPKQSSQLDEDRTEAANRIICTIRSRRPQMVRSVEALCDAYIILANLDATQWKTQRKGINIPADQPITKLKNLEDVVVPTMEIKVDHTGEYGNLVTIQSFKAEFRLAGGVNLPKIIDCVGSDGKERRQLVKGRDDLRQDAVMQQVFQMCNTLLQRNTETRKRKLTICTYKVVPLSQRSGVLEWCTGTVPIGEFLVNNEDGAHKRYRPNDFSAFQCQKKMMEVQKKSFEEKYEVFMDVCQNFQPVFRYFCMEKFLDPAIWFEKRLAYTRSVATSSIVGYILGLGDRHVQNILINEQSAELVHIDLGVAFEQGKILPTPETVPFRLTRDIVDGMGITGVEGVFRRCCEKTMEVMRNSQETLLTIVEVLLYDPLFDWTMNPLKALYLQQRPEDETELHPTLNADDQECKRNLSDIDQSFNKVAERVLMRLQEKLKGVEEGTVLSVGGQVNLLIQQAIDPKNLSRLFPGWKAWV
Chain of PI3K (p120γ) (human) (P48736 whole entry, the tested form may be a part): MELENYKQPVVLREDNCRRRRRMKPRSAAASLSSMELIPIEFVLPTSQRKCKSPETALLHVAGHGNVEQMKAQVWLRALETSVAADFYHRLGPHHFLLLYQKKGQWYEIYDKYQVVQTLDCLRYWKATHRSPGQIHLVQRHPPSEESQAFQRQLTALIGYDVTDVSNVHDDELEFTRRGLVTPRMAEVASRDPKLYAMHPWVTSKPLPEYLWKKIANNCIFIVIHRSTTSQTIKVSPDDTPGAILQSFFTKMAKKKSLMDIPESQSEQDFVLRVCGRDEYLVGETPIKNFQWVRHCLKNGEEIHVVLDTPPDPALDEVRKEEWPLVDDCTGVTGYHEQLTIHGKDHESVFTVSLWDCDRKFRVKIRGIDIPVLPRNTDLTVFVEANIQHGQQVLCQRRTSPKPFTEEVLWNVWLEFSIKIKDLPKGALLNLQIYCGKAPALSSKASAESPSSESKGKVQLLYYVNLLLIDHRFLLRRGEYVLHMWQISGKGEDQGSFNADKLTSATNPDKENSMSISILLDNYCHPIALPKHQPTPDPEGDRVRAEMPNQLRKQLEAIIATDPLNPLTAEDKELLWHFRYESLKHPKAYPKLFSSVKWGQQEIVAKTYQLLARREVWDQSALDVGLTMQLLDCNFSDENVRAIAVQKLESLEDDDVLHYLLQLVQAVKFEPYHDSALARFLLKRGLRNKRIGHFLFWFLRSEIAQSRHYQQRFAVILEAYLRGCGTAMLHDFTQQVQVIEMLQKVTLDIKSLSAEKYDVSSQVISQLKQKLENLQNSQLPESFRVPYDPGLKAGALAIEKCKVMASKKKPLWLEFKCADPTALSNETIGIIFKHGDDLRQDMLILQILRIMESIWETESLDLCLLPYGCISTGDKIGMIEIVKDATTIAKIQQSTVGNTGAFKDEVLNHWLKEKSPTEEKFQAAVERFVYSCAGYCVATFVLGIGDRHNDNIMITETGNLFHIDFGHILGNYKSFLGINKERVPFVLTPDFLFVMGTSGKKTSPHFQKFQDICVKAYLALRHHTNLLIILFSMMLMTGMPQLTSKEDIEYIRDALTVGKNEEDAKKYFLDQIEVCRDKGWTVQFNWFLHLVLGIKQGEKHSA

COc1cc2ncc3c(c2cc1-c1cnn(C)c1)n(-c1nccs1)c(=O)n3C [Compound Example 47, 7-Methoxy-3-methyl-8-(1-methyl-1H-pyrazol-4-yl)-1-thiazol-2-yl-1,3-dihydro-imidazo[4,5-c]quinolin-2-one]
IC50 [1]: < 0.01 µM
IC50 ([1]; 10 μM ATP, substrate p53): < 0.01 µM
IC50 [2]: 0.2 to 1 µM
IC50 [3]: > 30 µM
IC50 [4]: > 30 µM
IC50 ([5]; read-out: IC50 (PI3Kbeta)): > 30 µM
IC50 [6]: > 30 µM
IC50 [7]: > 30 µM

COc1cc2ncc3c(c2cc1-c1cn(C)nc1C)n(-c1cn(C)nc1C)c(=O)n3C [Compound Example 10, 1,8-Bis-(1,3-dimethyl-1H-pyrazol-4-yl)-7-methoxy-3-methyl-1,3-dihydroimidazo-[4,5-c]quinolin-2-one]
IC50 [1]: < 0.001 µM
IC50 ([1]; 10 μM ATP, substrate p53): < 0.001 µM
IC50 [2]: < 0.2 µM
IC50 [3]: > 30 µM
IC50 [4]: > 30 µM
IC50 ([5]; read-out: IC50 (PI3Kbeta)): > 30 µM
IC50 [6]: > 30 µM
IC50 [7]: > 30 µM

COc1cc2ncc3c(c2cc1-c1cnn(C)c1)n(-c1ncncc1F)c(=O)n3C [Compound Example 31, 1-(5-Fluoropyrimidin-4-yl)-7-methoxy-3-methyl-8-(1-methyl-1H-pyrazol-4-yl)-1H,2H,3H-imidazo[4,5-c] quinolin-2-one hydrochloride]
IC50 [1]: < 0.01 µM
IC50 ([1]; 10 μM ATP, substrate p53): < 0.01 µM
IC50 [2]: < 0.2 µM
IC50 [3]: > 30 µM
IC50 [4]: > 30 µM
IC50 ([5]; read-out: IC50 (PI3Kbeta)): > 30 µM
IC50 [6]: > 30 µM
IC50 [7]: > 30 µM

COc1cc2ncc3c(c2cc1-c1cn[nH]c1)n(-c1cn(C)nc1C)c(=O)n3C [Example 3]
IC50 [1]: < 0.001 µM
IC50 ([1]; 10 μM ATP, substrate p53): < 0.001 µM
IC50 [2]: < 0.2 µM
IC50 [3]: > 5 µM
IC50 [4]: > 30 µM
IC50 [5]: > 30 µM
IC50 [6]: > 30 µM
IC50 [7]: > 30 µM

COc1cc2ncc3c(c2cc1-c1cnn(C)c1)n(-c1cn(C)nc1C)c(=O)n3C [Compound Example 5, 1-(1,3-Dimethyl-1H-pyrazol-4-yl)-7-methoxy-3-methyl-8-(1-methyl-1H-pyrazol-4-yl)-1,3-dihydroimidazo[4,5-c]-quinolin-2-one]
IC50 [1]: < 0.001 µM
IC50 ([1]; 10 μM ATP, substrate p53): < 0.001 µM
IC50 [2]: < 0.2 µM
IC50 [3]: > 30 µM
IC50 [4]: > 30 µM
IC50 ([5]; read-out: IC50 (PI3Kbeta)): > 30 µM
IC50 [6]: > 30 µM
IC50 [7]: > 30 µM

COc1cc2ncc3c(c2cc1-c1cn(C)nc1C)n(-c1ncc(F)cc1F)c(=O)n3C [Compound Example 11, 1-(3,5-Difluoropyridin-2-yl)-8-(1,3-dimethyl-1H-pyrazol-4-yl)-7-methoxy-3-methyl-1,3-dihydroimidazo[4,5-c]-quinolin-2-one]
IC50 [1]: < 0.001 µM
IC50 ([1]; 10 μM ATP, substrate p53): < 0.001 µM
IC50 [2]: < 0.2 µM
IC50 [3]: > 30 µM
IC50 [4]: > 30 µM
IC50 ([5]; read-out: IC50 (PI3Kbeta)): > 30 µM
IC50 [6]: > 30 µM
IC50 [7]: > 30 µM

CCn1cc(-c2cc3c(cc2OC)ncc2c3n(-c3ccncc3C)c(=O)n2C)cn1 [Compound Example 34, 8-(1-Ethyl-1H-pyrazol-4-yl)-7-methoxy-3-methyl-1-(3-methylpyridin-4-yl)-1,3-dihydroimidazo[4,5-c] quinolin-2-one]
IC50 [1]: < 0.01 µM
IC50 ([1]; 10 μM ATP, substrate p53): < 0.01 µM
IC50 [2]: < 0.2 µM
IC50 [3]: > 30 µM
IC50 [4]: > 30 µM
IC50 ([5]; read-out: IC50 (PI3Kbeta)): > 30 µM
IC50 [6]: > 30 µM
IC50 [7]: > 30 µM

COc1cc2ncc3c(c2cc1-c1cn[nH]c1)n(-c1c(F)cncc1F)c(=O)n3C [Compound Example 2, 1-(3,5-Difluoropyridin-4-yl)-7-methoxy-3-methyl-8-(1H-pyrazol-4-yl)-1,3-dihydro-imidazo[4,5-c]quinolin-2-one]
IC50 [1]: < 0.001 µM
IC50 ([1]; 10 μM ATP, substrate p53): < 0.001 µM
IC50 [2]: < 0.2 µM
IC50 [3]: > 5 µM
IC50 [4]: > 30 µM
IC50 ([5]; read-out: IC50 (PI3Kbeta)): > 30 µM
IC50 [6]: > 30 µM
IC50 [7]: > 30 µM

COc1cc2ncc3c(c2cc1-c1cnn(C)c1)n(-c1ncc(C)cc1F)c(=O)n3C [Compound Example 27, 1-(3-Fluoro-5-methylpyridin-2-yl)-7-methoxy-3-methyl-8-(1-methyl-1H-pyrazol-4-yl)-1,3-dihydroimidazo[4,5-c] quinolin-2-one]
IC50 [1]: < 0.001 µM
IC50 ([1]; 10 μM ATP, substrate p53): < 0.001 µM
IC50 [2]: < 0.2 µM
IC50 [3]: > 30 µM
IC50 [4]: > 30 µM
IC50 ([5]; read-out: IC50 (PI3Kbeta)): > 30 µM
IC50 [6]: > 30 µM
IC50 [7]: > 30 µM

COc1cc2ncc3c(c2cc1-c1cnn(C)c1)n(-c1ccncc1OC)c(=O)n3C [Compound Example 28, 7-Methoxy-1-(3-methoxy-pyridin-4-yl)-3-methyl-8-(1-methyl-1H-pyrazol-4-yl)-1,3-dihydroimidazo[4,5-c] quinolin-2-one]
IC50 [1]: < 0.01 µM
IC50 ([1]; 10 μM ATP, substrate p53): < 0.01 µM
IC50 [2]: < 0.2 µM
IC50 [3]: > 30 µM
IC50 [4]: > 30 µM
IC50 ([5]; read-out: IC50 (PI3Kbeta)): > 30 µM
IC50 [6]: > 30 µM
IC50 [7]: > 30 µM

COc1cc2ncc3c(c2cc1-c1cn(C)nn1)n(-c1ncccc1F)c(=O)n3C [Compound Example 51, 1-(3-Fluoropyridin-2-yl)-7-methoxy-3-methyl-8-(1-methyl-1H-1,2,3-triazol-4-yl)-1,3-dihydroimidazo-[4,5-c]quinolin-2-one]
IC50 [1]: < 0.01 µM
IC50 ([1]; 10 μM ATP, substrate p53): < 0.01 µM
IC50 [2]: 0.2 to 1 µM
IC50 [3]: > 30 µM
IC50 [4]: > 30 µM
IC50 ([5]; read-out: IC50 (PI3Kbeta)): > 30 µM
IC50 [6]: > 30 µM
IC50 [7]: > 30 µM

COc1cc2ncc3c(c2cc1-c1cnn(C)c1)n(-c1cnn(C2CCOCC2)c1)c(=O)n3C [Compound Example 55, 7-Methoxy-3-methyl-8-(1-methyl-1H-pyrazol-4-yl)-1-[1-(tetrahydropyran-4-yl)-1H-pyrazol-4-yl]-1,3-dihydroimidazo[4,5-c]-quinolin-2-one]
IC50 [1]: < 0.01 µM
IC50 ([1]; 10 μM ATP, substrate p53): < 0.01 µM
IC50 [2]: 0.2 to 1 µM
IC50 [3]: > 30 µM
IC50 [4]: > 30 µM
IC50 ([5]; read-out: IC50 (PI3Kbeta)): > 30 µM
IC50 [6]: > 30 µM
IC50 [7]: > 30 µM

COc1cc2ncc3c(c2cc1-c1cnn(C)c1)n(-c1cnn(C)c1)c(=O)n3C [Compound Example 23, 7-Methoxy-3-methyl-1,8-bis-(1-methyl-1H-pyrazol-4-yl)-1,3-dihydroimidazo[4,5-c] quinolin-2-one]
IC50 [1]: < 0.01 µM
IC50 ([1]; 10 μM ATP, substrate p53): < 0.01 µM
IC50 [2]: < 0.2 µM
IC50 [3]: > 20 µM
IC50 [4]: > 20 µM
IC50 ([5]; read-out: IC50 (PI3Kbeta)): > 30 µM
IC50 [6]: > 30 µM
IC50 [7]: > 30 µM

COc1cc2ncc3c(c2cc1-c1cnn(C)c1)n(-c1ccncc1C)c(=O)n3C [Compound Example 40, 7-Methoxy-3-methyl-8-(1-methyl-1H-pyrazol-4-yl)-1-(3-methylpyridin-4-yl)-1,3-dihydroimidazo[4,5-c] quinolin-2-one]
IC50 [1]: < 0.01 µM
IC50 ([1]; 10 μM ATP, substrate p53): < 0.01 µM
IC50 [2]: 0.2 to 1 µM
IC50 [3]: > 30 µM
IC50 [4]: > 30 µM
IC50 ([5]; read-out: IC50 (PI3Kbeta)): > 30 µM
IC50 [6]: > 30 µM
IC50 [7]: > 30 µM

COc1cc2ncc3c(c2cc1-c1cnn(C)c1)n(-c1c(F)cncc1C#N)c(=O)n3C [Compound Example 44, 5-Fluoro-4-[7-methoxy-3-methyl-8-(1-methyl-1H-pyrazol-4-yl)-2-oxo-2,3-dihydroimidazo[4,5-c]-quinolin-1-yl]nicotinonitrile]
IC50 [1]: < 0.01 µM
IC50 ([1]; 10 μM ATP, substrate p53): < 0.01 µM
IC50 [2]: 0.2 to 1 µM
IC50 [3]: > 30 µM
IC50 [4]: > 30 µM
IC50 ([5]; read-out: IC50 (PI3Kbeta)): > 30 µM
IC50 [6]: > 30 µM
IC50 [7]: > 30 µM
